According to ChEMBL document CHEMBL3745607, “Optimization of allosteric MEK inhibitors. Part 2: Taming the sulfamide group balances compound distribution properties” (Bioorg Med Chem Lett, 2016):

Key:
A-375 = test: Antiproliferative activity against human A375 cells harboring BRAF(V600E) mutation after 72 hrs by cell titer glow cell titer glow FCTGI assay; conditions: A-375, 72 h
cells [1] = conditions: Homo sapiens, HCT-116
Description: Antiproliferative activity against human HCT116 cells harboring K-Ras G13D mutation

[2] = Volume of distribution at steady state in rat at 0.5 mg/kg, iv or 1 mg/kg, po; assay type: ADME, organism-based; conditions: in vivo, read-out: Vdss
A549 [3] = test: Antitumor activity against human A549 cells xenografted in mouse assessed as reduction in tumor area at 1 mg/kg, po qd relative to control; assay type: functional
[4] = Oral bioavailability in rat 1 mg/kg; assay type: ADME, organism-based; conditions: in vivo
[5] = Half life in rat at 0.5 mg/kg, iv or 1 mg/kg, po; assay type: ADME, organism-based; conditions: in vivo
HepG2 = test: cells; conditions: Homo sapiens
Description: Antiproliferative activity against human HepG2 cells harboring N-Ras mutation

MCF7 = test: cells; conditions: Homo sapiens
Description: Antiproliferative activity against human MCF7 cells

A549 [6] = test: cells; conditions: Homo sapiens
Description: Antiproliferative activity against human A549 cells harboring K-Ras mutation

[7] = Blood clearance in rat at 0.5 mg/kg, iv or 1 mg/kg, po; assay type: ADME, organism-based
[8] = Ratio of AUC in brain to plasma in mouse at 5 mg/kg, iv measured for 0 to 3 hrs; assay type: ADME, organism-based; conditions: brain and plasma, read-out: BPR
cells [9] = conditions: Homo sapiens, COLO 205
Description: Antiproliferative activity against human COLO205 cells harboring BRAF mutation

A549 [10] = test: Antitumor activity against human A549 cells xenografted in mouse assessed as reduction in tumor area at 2 mg/kg, po qd relative to control; assay type: functional
Carbonic anhydrase 2 = Carbonic anhydrase 2 (Homo sapiens, UniProt P00918); test: Inhibition of human carbonic anhydrase 2
[11] = Oral bioavailability in rat 5 mg/kg; assay type: ADME, organism-based; conditions: in vivo
[12] = Half life in rat at 0.5 mg/kg, iv or 5 mg/kg, po; assay type: ADME, organism-based; conditions: in vivo
Carbonic anhydrase 1 = Carbonic anhydrase 1 (Homo sapiens, UniProt P00915); test: Inhibition of human carbonic anhydrase 1
Sequence of Carbonic anhydrase 1 (P00915 whole entry): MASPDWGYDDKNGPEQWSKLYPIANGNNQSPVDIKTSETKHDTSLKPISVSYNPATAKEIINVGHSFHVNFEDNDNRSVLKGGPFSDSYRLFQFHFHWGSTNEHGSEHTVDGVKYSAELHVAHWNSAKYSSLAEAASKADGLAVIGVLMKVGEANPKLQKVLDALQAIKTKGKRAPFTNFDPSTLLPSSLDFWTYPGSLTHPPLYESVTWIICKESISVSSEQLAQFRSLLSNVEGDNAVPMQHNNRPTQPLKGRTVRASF

SMILES | IC50 (A-375) [nM] | IC50 (cells [1]) [nM] | also measured
NC(=O)c1c(Oc2cccc(NS(N)(=O)=O)c2)cc(F)c(F)c1Nc1ccc(I)cc1F | 2 | 50 | 
NC(=O)c1c(Oc2cccc(CNS(N)(=O)=O)c2)cc(F)c(F)c1Nc1ccc(I)cc1F | 4 | 124 | Vd [2]: 1.9 L/kg; T/C (A549 [3]): 0.13; bioavailability [4]: 78%; half-life [5]: 32 h; IC50 (HepG2): 5 nM; IC50 (MCF7): > 10000 nM; IC50 (A549 [6]): 185 nM; clearance [7]: 1.17 mL/min/kg; Kp [8]: < 0.02; IC50 (cells [9]): 9 nM
NC(=O)c1c(Oc2ccc(F)c(NS(N)(=O)=O)c2)cc(F)c(F)c1Nc1ccc(I)cc1F | 13 | 277 | Vd [2]: 0.5 L/kg; bioavailability [4]: 84%; half-life [5]: 26 h; T/C (A549 [10]): 0.21; IC50 (HepG2): 2 nM; IC50 (MCF7): > 10000 nM; IC50 (A549 [6]): 314 nM; clearance [7]: 0.333 mL/min/kg; Kp [8]: < 0.02; IC50 (cells [9]): 42 nM
NCCS(=O)(=O)Nc1cccc(Oc2cc(F)cc(Nc3ccc(I)cc3F)c2C(N)=O)c1 | 88 | 1800 | IC50 (Carbonic anhydrase 2): > 10000 nM
CCS(=O)(=O)Nc1cccc(Oc2cc(F)c(F)c(Nc3ccc(I)cc3F)c2C(N)=O)c1 | 2.4 | 65 | 
NC(=O)c1c(Oc2cccc(CS(N)(=O)=O)c2)cc(F)c(F)c1Nc1ccc(I)cc1F | 11 | 303 | 
NC(=O)c1c(Nc2ccc(I)cc2F)cc(F)cc1Oc1ccc2c(c1)N(S(N)(=O)=O)CCO2 | 339 |  | 
Cn1cnc2c(F)c(Nc3ccc(Br)cc3Cl)c(C(=O)NOCCO)cc21 [SELUMETINIB] |  | 3000 | IC50 (MCF7): > 10000 nM; bioavailability [11]: 24%; half-life [12]: 4.1 h; IC50 (cells [9]): 69 nM
Cc1c(NS(N)(=O)=O)cccc1Oc1cc(F)c(F)c(Nc2ccc(I)cc2F)c1C(N)=O | 0.2 | 2 | 
NC(=O)c1c(Nc2ccc(I)cc2F)cc(F)cc1Oc1ccc(F)c(NS(N)(=O)=O)c1F | 374 |  | 
CCNS(=O)(=O)Nc1cccc(Oc2cc(F)cc(Nc3ccc(I)cc3F)c2C(N)=O)c1 | < 30 | 287 | 
NC(=O)c1c(Oc2ccc(F)c(NS(N)(=O)=O)c2F)cc(F)c(F)c1Nc1ccc(I)cc1F | 32 | 2950 | 
CN(C)S(=O)(=O)Nc1cccc(Oc2cc(F)c(F)c(Nc3ccc(I)cc3F)c2C(N)=O)c1 | 6 | 42 | 
CCS(=O)(=O)Nc1cccc(Oc2c(F)c(F)cc(Nc3ccc(I)cc3F)c2C(N)=O)c1 | 4 | 81 | 

Second part, led by results:

IC50 (A-375) [nM] | IC50 (cells [1]) [nM] | SMILES | also measured
8 | 152 | NC(=O)c1c(Nc2ccc(I)cc2F)cc(F)cc1Oc1cccc(NS(N)(=O)=O)c1Br | 
24 | 731 | CC(NS(N)(=O)=O)c1cccc(Oc2cc(F)cc(Nc3ccc(I)cc3F)c2C(N)=O)c1 (configuration not stated) | 
922 |  | COc1cc(NS(N)(=O)=O)cc(Oc2cc(F)cc(Nc3ccc(I)cc3F)c2C(N)=O)c1 | 
2 | 9 | Cc1c(NS(N)(=O)=O)cccc1Oc1cc(F)cc(Nc2ccc(I)cc2F)c1C(N)=O | 
138 |  | NC(=O)c1c(Nc2ccc(I)cc2F)cc(F)cc1Oc1cccc(F)c1NS(N)(=O)=O | 
 | 3500 | NC(=O)c1c(Nc2ccc(I)cc2F)cc(F)cc1Oc1cccc(CS(N)(=O)=O)c1 | 
218 |  | Cc1cccc(Oc2cc(F)cc(Nc3ccc(I)cc3F)c2C(N)=O)c1NS(N)(=O)=O | 
977 |  | CCOc1ccc(Oc2cc(F)cc(Nc3ccc(I)cc3F)c2C(N)=O)cc1NS(N)(=O)=O | 
483 |  | NC(=O)c1c(Nc2ccc(I)cc2F)cc(F)cc1Oc1ccc(Cl)c(NS(N)(=O)=O)c1 | 
731 |  | COc1ccc(Oc2cc(F)cc(Nc3ccc(I)cc3F)c2C(N)=O)cc1NS(N)(=O)=O | 
6 | 87 | NC(=O)c1c(Nc2ccc(I)cc2F)cc(F)cc1Oc1cccc(NS(N)(=O)=O)c1Cl | 
180 |  | Cc1ccc(Oc2cc(F)cc(Nc3ccc(I)cc3F)c2C(N)=O)cc1NS(N)(=O)=O | 
65 | 2400 | NC(=O)c1c(Nc2ccc(I)cc2F)cc(F)cc1Oc1ccccc1NS(N)(=O)=O | 
35 | 757 | NC(=O)c1c(Nc2ccc(I)cc2F)cc(F)cc1Oc1cccc(CNS(N)(=O)=O)c1 | 
 | 180 | NC(=O)c1c(Nc2ccc(I)cc2F)cc(F)cc1Oc1cccc(NS(N)(=O)=O)c1 | IC50 (Carbonic anhydrase 1): 4800 nM; T/C (A549 [3]): 0.15; Kp [8]: < 0.02
90 | 2510 | NC(=O)c1c(Nc2ccc(I)cc2F)cc(F)cc1Oc1ccc(F)c(NS(N)(=O)=O)c1 | 
570 |  | Cc1ccc(NS(N)(=O)=O)cc1Oc1cc(F)cc(Nc2ccc(I)cc2F)c1C(N)=O | 
